Drawing on patent publication US20060030720A1, “Method for synthesizing macrosphelides” (priority 2002, published 2006), this text covers melting point for one molecule.

As a reminder, the melting point is the temperature, or range, at which the solid turns liquid.

In the case of `C[C@H]1C/C=C/C(=O)O[C@@H](C)CC(=O)O[C@@H](C)C/C=C/C(=O)O1` [Example 1], the melting point was 94 to 95 °C.
